These results are taken from ChEMBL document CHEMBL1201862, “PubChem BioAssay data set” (2004).

Test systems include SK-OV-3; EKVX; LOX IMVI; SN12C; KM12; HCT-15; NCI-H23; SW-620; SK-MEL-28; HOP-62; NCI-H522; HT-29; NCI-H460; HOP-92; U-251; OVCAR-8; HL-60.
Common to all, as to assay: NCI-60 cell line screen, 48 h

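Results reflect a 48-hour exposure of cells in 96-well plates to compound at five concentrations. Abbreviation: GI50, concentration required for 50% inhibition of growth.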 Activity calls are given as the source filed them. Rule as the data show it: active = GI50 up to about 1.1 µM and inactive = higher. Some results are limits rather than exact numbers.

Consider `NC(=S)N/N=C1\C(=O)N(CCc2ccccc2)C(=O)C1C(=O)NCCc1ccccc1` (stereo not given), for which the GI50 was > 100 µM (inactive) in the test with SK-OV-3; > 100 µM (inactive) in the test with EKVX; > 100 µM (inactive) in the test with LOX IMVI; > 100 µM (inactive) with SN12C; > 100 µM (inactive) with KM12; above 100 µM in the test with HCT-15. In addition, the GI50 in the test with NCI-H23, in the test with SW-620, in the test on SK-MEL-28, in the test with HOP-62, in the test with NCI-H522 and with HT-29 was > 100 µM (inactive) in each case. In addition, the GI50 in the test on NCI-H460, in the test with HOP-92, with U-251 and with OVCAR-8 was > 100 µM (inactive) throughout.
Turning to `Cc1ccc(/C=C2\CCCCC2=O)cc1`, the GI50 in the test with SK-OV-3 was > 100 µM (inactive); in the test on EKVX, > 100 µM (inactive); in the test with LOX IMVI, 31.5 µM (inactive); with HL-60, 19 µM (inactive); in the test with SN12C, 97.5 µM (inactive); with HCT-15 it was above 100 µM. In addition, the GI50 with NCI-H23 is > 100 µM (inactive); in the test with SW-620, > 100 µM (inactive); in the test on SK-MEL-28, > 100 µM (inactive); with HOP-62, > 100 µM (inactive); in the test on HT-29, 46.6 µM (inactive); in the test with NCI-H460, 80.9 µM (inactive). In addition, the GI50 with U-251 and with OVCAR-8 was > 100 µM (inactive) in each case.
Regarding `Clc1ccc(C(n2cc(Br)cn2)n2cc(Br)cn2)cc1`, the GI50 with SK-OV-3 is 35.1 µM (inactive); with EKVX, 19.7 µM (inactive); in the test with HL-60, 17.8 µM (inactive); in the test with SN12C, 16.8 µM (inactive); in the test on KM12, 13.5 µM (inactive); in the test on HCT-15, 13.8 µM. In addition, the GI50 with NCI-H23 is 17.9 µM (inactive); with SW-620, 17 µM (inactive); in the test on SK-MEL-28, 17.8 µM (inactive); in the test on HOP-62, 17.8 µM (inactive); with NCI-H522, 13.3 µM (inactive); with HT-29, 13.2 µM (inactive). The GI50 was 16.1 µM (inactive) with NCI-H460, 15 µM (inactive) in the test on HOP-92, 16.3 µM (inactive) in the test on U-251 and 18.5 µM (inactive) with OVCAR-8.
For `COc1cc(Cl)c2c3c(c(C(=O)c4ccccc4)oc13)CCC2`, the GI50 was > 100 µM (inactive) in the test on SK-OV-3; > 100 µM (inactive) in the test with EKVX; > 100 µM (inactive) with LOX IMVI; 53.6 µM (inactive) with HL-60; > 100 µM (inactive) in the test on SN12C; above 100 µM in the test on HCT-15. Further, the GI50 with NCI-H23, in the test on SW-620, in the test with SK-MEL-28, with HOP-62, in the test on HT-29 and in the test on NCI-H460 was > 100 µM (inactive) in each case. The GI50 was < 0.01 µM (active) in the test with HOP-92, > 100 µM (inactive) in the test with U-251 and > 100 µM (inactive) in the test on OVCAR-8.
Take `c1ccc(C(c2ccccc2)c2ccccn2)cc1`: the GI50 with SK-OV-3 is > 100 µM (inactive); with EKVX it was > 100 µM (inactive); in the test with LOX IMVI it was > 100 µM (inactive); with SN12C, > 100 µM (inactive); with KM12, > 100 µM (inactive); with HCT-15 it was above 100 µM. The GI50 in the test on NCI-H23, in the test with SW-620, with SK-MEL-28, in the test with HOP-62, in the test with HT-29 and with NCI-H460 was > 100 µM (inactive) in each case. Also, the GI50 in the test with U-251 and in the test with OVCAR-8 was > 100 µM (inactive) throughout.
